Laboratory results published in ChEMBL document CHEMBL3885861, “Open TG-GATES”.

Species: Rattus norvegicus
Assay: Open TG-GATES - Regimen: Daily Repeat
Format: toxicity, organism-based, Sprague-Dawley
Design: regimen Daily Repeat, gender Male, age 6 weeks
Conditions: in vivo, po, 0 mg/kg, route gavage, dose level Control; for APTT / Bas / Eos / Fbg / Hb / Ht / Lym / MCHC / MCV / Mono / Neu / PT / Plat / RBC / Ret / WBC: tissue Blood; for KIDNEY_L / KIDNEY_R / KIDNEY_TOTAL: tissue Kidney; for LIVER: tissue Liver; for ALP / ALT / AST / BUN / CRE / Ca / Cl / DBIL / GLC / IP / K / LDH / Na / PL / RALB / TBIL / TC / TG / TP / gamma-GTP: tissue Plasma

Molecule `CS(=O)(=O)Nc1ccc([N+](=O)[O-])cc1Oc1ccccc1` [NIMESULIDE] has a TERMINAL_BW (72 h, time 3 day) of 220.1 g, an APTT (72 h, time 3 day) of 17.3 s and a Bas (72 h, time 3 day) of 0%. The Eos (72 h, time 3 day) was 1%, the Fbg (72 h, time 3 day) was 199.4 mg/dL and the Hb (72 h, time 3 day) was 13.5 g/dL. For the same molecule, the Ht (72 h, time 3 day) was 39.9%, the Lym (72 h, time 3 day) was 78% and the MCHC (72 h, time 3 day) was 34%. The MCV (72 h, time 3 day) was 62.8 fL, the Mono (72 h, time 3 day) was 6.2% and the Neu (72 h, time 3 day) was 14.8%. The PT (72 h, time 3 day) was 11.7 s, the Plat (72 h, time 3 day) was 127.5 x10_4/uL and the RBC (72 h, time 3 day) was 635.6 x10_4/ul. The Ret (72 h, time 3 day) was 9.2%, the WBC (72 h, time 3 day) was 97.8 x10_2/uL and the KIDNEY_L (72 h, time 3 day) was 1 g. It also gave a KIDNEY_R (72 h, time 3 day) of 1 g, a KIDNEY_TOTAL (72 h, time 3 day) of 2 g and an LIVER (72 h, time 3 day) of 10.6 g. For the same molecule, the ALP (72 h, time 3 day) was 996 IU/L, the ALT (72 h, time 3 day) was 36.8 IU/L and the AST (72 h, time 3 day) was 63.6 IU/L. It also gave a BUN (72 h, time 3 day) of 17.6 mg/dL, a CRE (72 h, time 3 day) of 0.6 mg/dL and a Ca (72 h, time 3 day) of 10.7 mg/dL. The Cl (72 h, time 3 day) was 105 meq/L, the DBIL (72 h, time 3 day) was 0.064 mg/dL and the GLC (72 h, time 3 day) was 203 mg/dL. It also gave an IP (72 h, time 3 day) of 7.5 mg/dL, a K (72 h, time 3 day) of 4.7 meq/L and an LDH (72 h, time 3 day) of 81.6 IU/L. The Na (72 h, time 3 day) was 139.4 meq/L, the PL (72 h, time 3 day) was 132.2 mg/dL and the RALB (72 h, time 3 day) was 4 g/dL. For the same molecule, the TBIL (72 h, time 3 day) was 0.3 mg/dL, the TC (72 h, time 3 day) was 69 mg/dL and the TG (72 h, time 3 day) was 72.4 mg/dL. For the same molecule, the TP (72 h, time 3 day) was 5.5 g/dL, the gamma-GTP (72 h, time 3 day) was 1.4 IU/L and the TERMINAL_BW ([…], time 7 day) was 249.3 g. The TERMINAL_BW ([…], time 14 day) was 309.7 g, the TERMINAL_BW ([…], time 28 day) was 405 g and the APTT ([…], time 7 day) was 18.3 s. For the same molecule, the Bas ([…], time 7 day) was 0%, the Eos ([…], time 7 day) was 1% and the Fbg ([…], time 7 day) was 220 mg/dL. The Hb ([…], time 7 day) was 14.2 g/dL, the Ht ([…], time 7 day) was 41.6% and the Lym ([…], time 7 day) was 77.2%. For the same molecule, the MCHC ([…], time 7 day) was 34.1%, the MCV ([…], time 7 day) was 64.8 fL and the Mono ([…], time 7 day) was 9.4%. The Neu ([…], time 7 day) was 12.6%, the PT ([…], time 7 day) was 11.3 s and the Plat ([…], time 7 day) was 117.6 x10_4/uL. For the same molecule, the RBC ([…], time 7 day) was 642.4 x10_4/ul, the Ret ([…], time 7 day) was 7.2% and the WBC ([…], time 7 day) was 134.4 x10_2/uL. For the same molecule, the APTT ([…], time 14 day) was 17.4 s, the Bas ([…], time 14 day) was 0% and the Eos ([…], time 14 day) was 1.2%. The Fbg ([…], time 14 day) was 234.2 mg/dL, the Hb ([…], time 14 day) was 14.7 g/dL and the Ht ([…], time 14 day) was 43.2%. For the same molecule, the Lym ([…], time 14 day) was 79%, the MCHC ([…], time 14 day) was 34% and the MCV ([…], time 14 day) was 62.7 fL. For the same molecule, the Mono ([…], time 14 day) was 6.2%, the Neu ([…], time 14 day) was 13.8% and the PT ([…], time 14 day) was 11.8 s. It also gave a Plat ([…], time 14 day) of 118.2 x10_4/uL, an RBC ([…], time 14 day) of 689.8 x10_4/ul and a Ret ([…], time 14 day) of 6.7%. It also gave a WBC ([…], time 14 day) of 118 x10_2/uL, an APTT ([…], time 28 day) of 17.4 s and a Bas ([…], time 28 day) of 0%. The Eos ([…], time 28 day) was 1.4%, the Fbg ([…], time 28 day) was 213.8 mg/dL and the Hb ([…], time 28 day) was 15.1 g/dL. It also gave a Ht ([…], time 28 day) of 44.6%, a Lym ([…], time 28 day) of 80.6% and an MCHC ([…], time 28 day) of 33.9%. It also gave an MCV ([…], time 28 day) of 58.6 fL, a Mono ([…], time 28 day) of 5.8% and a Neu ([…], time 28 day) of 12.4%. For the same molecule, the PT ([…], time 28 day) was 11.7 s, the Plat ([…], time 28 day) was 126.5 x10_4/uL and the RBC ([…], time 28 day) was 761 x10_4/ul. It also gave a Ret ([…], time 28 day) of 2.7%, a WBC ([…], time 28 day) of 120.2 x10_2/uL and a KIDNEY_L ([…], time 7 day) of 1.1 g. For the same molecule, the KIDNEY_R ([…], time 7 day) was 1.1 g, the KIDNEY_TOTAL ([…], time 7 day) was 2.2 g and the KIDNEY_L ([…], time 14 day) was 1.4 g. The KIDNEY_R ([…], time 14 day) was 1.3 g, the KIDNEY_TOTAL ([…], time 14 day) was 2.7 g and the KIDNEY_L ([…], time 28 day) was 1.4 g. For the same molecule, the KIDNEY_R ([…], time 28 day) was 1.4 g, the KIDNEY_TOTAL ([…], time 28 day) was 2.8 g and the LIVER ([…], time 7 day) was 11.6 g. The LIVER ([…], time 14 day) was 14.5 g, the LIVER ([…], time 28 day) was 16.5 g and the ALP ([…], time 7 day) was 876.4 IU/L. The ALT ([…], time 7 day) was 35.4 IU/L, the AST ([…], time 7 day) was 64.2 IU/L and the BUN ([…], time 7 day) was 19.2 mg/dL. The CRE ([…], time 7 day) was 0.6 mg/dL, the Ca ([…], time 7 day) was 10.5 mg/dL and the Cl ([…], time 7 day) was 105.2 meq/L. It also gave a DBIL ([…], time 7 day) of 0.03 mg/dL, a GLC ([…], time 7 day) of 197.4 mg/dL and an IP ([…], time 7 day) of 7 mg/dL. For the same molecule, the K ([…], time 7 day) was 5 meq/L, the LDH ([…], time 7 day) was 91.8 IU/L and the Na ([…], time 7 day) was 140.4 meq/L. It also gave a PL ([…], time 7 day) of 153.8 mg/dL, an RALB ([…], time 7 day) of 4 g/dL and a TBIL ([…], time 7 day) of 0.3 mg/dL. The TC ([…], time 7 day) was 79.2 mg/dL, the TG ([…], time 7 day) was 108.6 mg/dL and the TP ([…], time 7 day) was 5.7 g/dL. It also gave a gamma-GTP ([…], time 7 day) of 1.4 IU/L, an ALP ([…], time 14 day) of 898.6 IU/L and an ALT ([…], time 14 day) of 28.4 IU/L. The AST ([…], time 14 day) was 60 IU/L, the BUN ([…], time 14 day) was 17.4 mg/dL and the CRE ([…], time 14 day) was 0.5 mg/dL. It also gave a Ca ([…], time 14 day) of 10.7 mg/dL, a Cl ([…], time 14 day) of 106.4 meq/L and a DBIL ([…], time 14 day) of 0.002 mg/dL. It also gave a GLC ([…], time 14 day) of 199.4 mg/dL, an IP ([…], time 14 day) of 7.2 mg/dL and a K ([…], time 14 day) of 4.7 meq/L. For the same molecule, the LDH ([…], time 14 day) was 54 IU/L, the Na ([…], time 14 day) was 140.6 meq/L and the PL ([…], time 14 day) was 141 mg/dL. The RALB ([…], time 14 day) was 4 g/dL, the TBIL ([…], time 14 day) was 0.3 mg/dL and the TC ([…], time 14 day) was 65.4 mg/dL. The TG ([…], time 14 day) was 124.4 mg/dL, the TP ([…], time 14 day) was 5.9 g/dL and the gamma-GTP ([…], time 14 day) was 1 IU/L. For the same molecule, the ALP ([…], time 28 day) was 627.4 IU/L, the ALT ([…], time 28 day) was 29 IU/L and the AST ([…], time 28 day) was 61.8 IU/L. For the same molecule, the BUN ([…], time 28 day) was 20.2 mg/dL, the CRE ([…], time 28 day) was 0.6 mg/dL and the Ca ([…], time 28 day) was 10.5 mg/dL. It also gave a Cl ([…], time 28 day) of 108.2 meq/L, a DBIL ([…], time 28 day) of 0.006 mg/dL and a GLC ([…], time 28 day) of 200 mg/dL. The IP ([…], time 28 day) was 6.6 mg/dL, the K ([…], time 28 day) was 4.7 meq/L and the LDH ([…], time 28 day) was 78 IU/L. It also gave a Na ([…], time 28 day) of 143.8 meq/L, a PL ([…], time 28 day) of 152 mg/dL and an RALB ([…], time 28 day) of 4.1 g/dL. It also gave a TBIL ([…], time 28 day) of 0.3 mg/dL, a TC ([…], time 28 day) of 73.2 mg/dL and a TG ([…], time 28 day) of 160.4 mg/dL. It also gave a TP ([…], time 28 day) of 6 g/dL and a gamma-GTP ([…], time 28 day) of 1.8 IU/L.
